Data reported in patent publication US9440952B2, “Compounds inhibiting leucine-rich repeat kinase enzyme activity” (Merck Sharp & Dohme Corp., priority 2013, dated 2016).

How the values were obtained:
Format in all cases: biochemical
[1] = target: T1, LRRK2(G2019S mutation, GST-LRRK2(amino acids 970-2527)) (Homo sapiens, UniProt Q5S007, G2019S); assay: LRRK2 Km ATP LanthaScreen Assay; conditions: Km ATP LanthaScreen; mean IC50 of several tests; read-out: LRRK2 IC50
T1 construct: GST-LRRK2(amino acids 970-2527); GST (N); purchased Life Technologies Corporation
In short: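 IC50 values are means of several runs in the Km-ATP LanthaScreen format, analysed by curve fitting of the LanthaScreen read-out.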

[2] = target: T1, LRRK2(G2019S mutation, GST-LRRK2(amino acids 970-2527)); assay: LRRK2 5 mM ATP LanthaScreen Assay; conditions: mean IC50 of several tests
Procedure: The data presented for the 5 mM and Km ATP LanthaScreen™ Assay represents mean IC50 values based on several test results and may have reasonable. deviations depending on the specific conditions and reagents used. Reagents for the LRRK2 5 mM and Km ATP LanthaScreen™ Assay were purchased from Life Technologies Corporation.
LRRK2 5 mM ATP LanthaScreen™ Assay • a) 400 nl of a 1:2.15 serial dilution of test compound (98 μM top assay concentration) is spotted via Labcyte Echo to certain wells in a 384 well black, untreated plate. […] Results are analysed using Assay Data Analyzer.

kinases (Table B) [3] = target: T2, kinases (Table B) (Homo sapiens, UniProt O96017); assay: Kinase selectivity, Z'-LYTE or Adapta assay platforms (Life Technologies); conditions: CHEK2 (CHK2), Z-LYTE, read-out: percent inhibition CHEK2 (CHK2); for inhibition at 1 µM: test conc 1 μM
T2 construct: purchased Life Technologies Corporation

kinases (Table B) [4] = target: T3, kinases (Table B) (Homo sapiens, UniProt P15056, V600E); assay: as above; conditions: BRAF V599E, Z-LYTE, read-out: percent inhibition BRAF V599E; for inhibition at 1 µM: test conc 1 μM
T3 construct: purchased Life Technologies Corporation

kinases (Table B) [5] = target: T4, kinases (Table B) (Homo sapiens, UniProt P28482); assay: as above; conditions: MAPK1 (ERK2), Z-LYTE, read-out: percent inhibition MAPK1 (ERK2); for inhibition at 1 µM: test conc 1 μM
T4 construct: purchased Life Technologies Corporation

kinases (Table B) [6] = target: T5, kinases (Table B) (Homo sapiens, UniProt P45983); assay: as above; conditions: MAPK8 (JNK1), Z-LYTE, read-out: percent inhibition MAPK8 (JNK1); for inhibition at 1 µM: test conc 1 μM
T5 construct: purchased Life Technologies Corporation

kinases (Table B) [7] = target: T6, kinases (Table B) (Homo sapiens, UniProt Q13627); assay: as above; conditions: DYRK1A, Z-LYTE, read-out: percent inhibition DYRK1A; for inhibition at 1 µM: test conc 1 μM
T6 construct: purchased Life Technologies Corporation

kinases (Table B) [8] = target: T7, kinases (Table B) (Homo sapiens, UniProt Q96GD4); assay: as above; conditions: AURKB (Aurora B), Z-LYTE, read-out: percent inhibition AURKB (Aurora B); for inhibition at 1 µM: test conc 1 μM
T7 construct: purchased Life Technologies Corporation

kinases (Table B) [9] = assay: as above; conditions: for percent inhibition CDK1/cyclin B / percent inhibition CLK2 / percent inhibition JAK3: Z-LYTE; for percent inhibition IRAK1: Adapta

T1 sequence (Q5S007 970-2527 G2019S): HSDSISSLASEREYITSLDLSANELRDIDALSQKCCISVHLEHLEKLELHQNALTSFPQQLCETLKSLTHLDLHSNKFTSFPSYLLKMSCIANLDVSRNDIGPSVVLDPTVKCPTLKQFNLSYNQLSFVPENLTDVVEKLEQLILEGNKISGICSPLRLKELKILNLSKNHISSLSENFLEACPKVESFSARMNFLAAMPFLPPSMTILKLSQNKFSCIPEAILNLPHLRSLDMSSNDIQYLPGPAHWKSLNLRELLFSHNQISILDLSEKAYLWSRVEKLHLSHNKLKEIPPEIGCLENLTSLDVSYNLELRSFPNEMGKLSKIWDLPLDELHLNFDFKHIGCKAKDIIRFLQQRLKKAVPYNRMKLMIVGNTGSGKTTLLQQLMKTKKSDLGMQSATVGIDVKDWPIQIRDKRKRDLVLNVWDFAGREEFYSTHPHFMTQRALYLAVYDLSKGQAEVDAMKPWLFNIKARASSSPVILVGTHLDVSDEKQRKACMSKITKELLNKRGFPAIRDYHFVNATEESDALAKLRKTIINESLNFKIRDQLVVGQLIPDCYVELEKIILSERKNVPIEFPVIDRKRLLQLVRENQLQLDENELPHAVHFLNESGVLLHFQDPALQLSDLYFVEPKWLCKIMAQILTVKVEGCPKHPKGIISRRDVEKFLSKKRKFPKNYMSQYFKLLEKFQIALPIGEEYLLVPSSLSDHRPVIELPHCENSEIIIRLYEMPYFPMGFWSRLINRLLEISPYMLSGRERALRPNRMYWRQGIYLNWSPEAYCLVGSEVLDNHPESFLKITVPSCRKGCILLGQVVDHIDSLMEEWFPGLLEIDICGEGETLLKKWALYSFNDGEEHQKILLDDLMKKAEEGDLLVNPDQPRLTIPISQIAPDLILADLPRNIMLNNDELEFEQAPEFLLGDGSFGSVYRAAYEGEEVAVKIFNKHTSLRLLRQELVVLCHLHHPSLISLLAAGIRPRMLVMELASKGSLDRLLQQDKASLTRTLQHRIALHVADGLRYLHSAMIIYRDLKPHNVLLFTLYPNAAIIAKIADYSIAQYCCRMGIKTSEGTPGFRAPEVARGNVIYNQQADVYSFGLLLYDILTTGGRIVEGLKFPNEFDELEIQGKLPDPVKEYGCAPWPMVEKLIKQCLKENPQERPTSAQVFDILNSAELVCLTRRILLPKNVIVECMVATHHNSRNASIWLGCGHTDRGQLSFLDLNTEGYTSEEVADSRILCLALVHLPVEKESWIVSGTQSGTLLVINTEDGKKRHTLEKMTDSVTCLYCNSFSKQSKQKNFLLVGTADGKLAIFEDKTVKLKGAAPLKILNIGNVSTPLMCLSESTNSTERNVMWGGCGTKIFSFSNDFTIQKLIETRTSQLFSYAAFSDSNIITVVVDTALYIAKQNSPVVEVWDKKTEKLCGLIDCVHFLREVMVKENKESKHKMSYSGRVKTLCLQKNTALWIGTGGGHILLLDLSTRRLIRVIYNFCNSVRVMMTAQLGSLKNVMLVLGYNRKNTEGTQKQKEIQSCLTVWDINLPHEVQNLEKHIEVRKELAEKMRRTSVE
T5 sequence (P45983 whole entry): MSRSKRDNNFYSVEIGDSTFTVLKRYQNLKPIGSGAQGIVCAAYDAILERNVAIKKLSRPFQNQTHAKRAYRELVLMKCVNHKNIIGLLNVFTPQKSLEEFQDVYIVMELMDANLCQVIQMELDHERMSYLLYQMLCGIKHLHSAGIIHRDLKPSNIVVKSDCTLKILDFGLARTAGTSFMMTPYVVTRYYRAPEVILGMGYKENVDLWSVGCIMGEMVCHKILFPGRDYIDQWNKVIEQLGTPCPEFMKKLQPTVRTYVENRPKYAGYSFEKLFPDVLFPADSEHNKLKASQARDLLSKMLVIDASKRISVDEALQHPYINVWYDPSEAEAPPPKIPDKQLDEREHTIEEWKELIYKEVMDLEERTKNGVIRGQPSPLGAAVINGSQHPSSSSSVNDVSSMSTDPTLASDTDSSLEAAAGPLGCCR
T3 sequence (P15056 whole entry V600E): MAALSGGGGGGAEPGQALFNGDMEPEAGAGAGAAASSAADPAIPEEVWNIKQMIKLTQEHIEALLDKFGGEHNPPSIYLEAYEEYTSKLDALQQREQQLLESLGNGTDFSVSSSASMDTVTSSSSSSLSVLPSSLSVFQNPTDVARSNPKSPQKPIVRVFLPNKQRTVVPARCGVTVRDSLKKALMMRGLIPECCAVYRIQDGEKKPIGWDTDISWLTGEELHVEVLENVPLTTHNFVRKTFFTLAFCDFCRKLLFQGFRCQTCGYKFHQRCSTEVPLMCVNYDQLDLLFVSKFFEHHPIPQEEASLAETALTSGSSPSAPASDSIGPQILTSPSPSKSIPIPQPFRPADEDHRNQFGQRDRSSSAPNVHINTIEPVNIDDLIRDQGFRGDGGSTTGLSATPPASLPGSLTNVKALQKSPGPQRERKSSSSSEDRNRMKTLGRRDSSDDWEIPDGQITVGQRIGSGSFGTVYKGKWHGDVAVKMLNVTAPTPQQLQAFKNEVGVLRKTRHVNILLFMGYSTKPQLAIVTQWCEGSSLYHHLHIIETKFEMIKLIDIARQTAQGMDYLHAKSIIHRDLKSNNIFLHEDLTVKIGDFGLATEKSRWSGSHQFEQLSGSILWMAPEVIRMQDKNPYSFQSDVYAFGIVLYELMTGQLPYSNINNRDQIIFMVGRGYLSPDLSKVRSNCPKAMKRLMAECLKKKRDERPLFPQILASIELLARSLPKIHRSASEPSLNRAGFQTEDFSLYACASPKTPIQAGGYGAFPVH
T4 sequence (P28482 whole entry): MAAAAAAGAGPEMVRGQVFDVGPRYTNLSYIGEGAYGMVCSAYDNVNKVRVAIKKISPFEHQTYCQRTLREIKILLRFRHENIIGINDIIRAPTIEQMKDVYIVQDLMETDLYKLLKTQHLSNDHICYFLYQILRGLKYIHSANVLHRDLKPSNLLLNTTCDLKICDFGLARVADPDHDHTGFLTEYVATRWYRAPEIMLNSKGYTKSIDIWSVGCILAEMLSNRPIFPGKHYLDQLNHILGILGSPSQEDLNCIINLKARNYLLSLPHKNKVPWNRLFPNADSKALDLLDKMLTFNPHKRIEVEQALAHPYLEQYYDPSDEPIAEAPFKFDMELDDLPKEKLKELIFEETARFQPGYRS
T2 sequence (O96017 whole entry): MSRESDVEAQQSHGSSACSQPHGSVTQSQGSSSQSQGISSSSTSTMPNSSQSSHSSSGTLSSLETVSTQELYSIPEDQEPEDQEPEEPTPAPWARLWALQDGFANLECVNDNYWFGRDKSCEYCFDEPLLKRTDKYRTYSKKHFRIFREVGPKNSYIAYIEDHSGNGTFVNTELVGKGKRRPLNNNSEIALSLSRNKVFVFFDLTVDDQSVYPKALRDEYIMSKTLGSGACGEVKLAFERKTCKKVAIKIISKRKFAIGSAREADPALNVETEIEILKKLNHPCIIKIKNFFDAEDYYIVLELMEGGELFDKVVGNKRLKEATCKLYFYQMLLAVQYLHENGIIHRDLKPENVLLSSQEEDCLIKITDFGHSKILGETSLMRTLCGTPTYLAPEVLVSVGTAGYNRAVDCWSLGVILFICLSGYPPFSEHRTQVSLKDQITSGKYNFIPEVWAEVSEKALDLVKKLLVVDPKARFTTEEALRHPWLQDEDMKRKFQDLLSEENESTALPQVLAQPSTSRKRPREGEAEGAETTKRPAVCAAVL
T7 sequence (Q96GD4 whole entry): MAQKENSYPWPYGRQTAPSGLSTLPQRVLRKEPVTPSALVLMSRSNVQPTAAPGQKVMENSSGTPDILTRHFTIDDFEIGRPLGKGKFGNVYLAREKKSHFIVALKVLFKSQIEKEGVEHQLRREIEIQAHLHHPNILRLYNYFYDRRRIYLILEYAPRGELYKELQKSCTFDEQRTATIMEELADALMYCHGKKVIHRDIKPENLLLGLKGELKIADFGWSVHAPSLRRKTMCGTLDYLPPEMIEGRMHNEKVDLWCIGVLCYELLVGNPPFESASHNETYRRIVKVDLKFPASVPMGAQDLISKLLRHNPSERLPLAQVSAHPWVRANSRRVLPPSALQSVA

SMILES | IC50 [1] | IC50 [2] | inhibition at 1 µM (kinases (Table B) [3]) | inhibition at 1 µM (kinases (Table B) [4]) | inhibition at 1 µM (kinases (Table B) [5]) | inhibition at 1 µM (kinases (Table B) [6]) | inhibition at 1 µM (kinases (Table B) [7]) | inhibition at 1 µM (kinases (Table B) [8]) | percent inhibition CDK1/cyclin B (kinases (Table B) [9]; test conc 1 μM) | percent inhibition CLK2 (kinases (Table B) [9]; test conc 1 μM) | percent inhibition IRAK1 (kinases (Table B) [9]; test conc 1 μM) | percent inhibition JAK3 (kinases (Table B) [9]; test conc 1 μM) | other results
CC(C)Oc1ccc2[nH]nc(-c3ccnc(N4CCN(S(C)(=O)=O)CC4)c3)c2c1 [Example 289] | 2.7 nM | 16 nM | 26% | 64% | 55% | 54% | 12% | 23% | 18% | 49% | 6% | 29% | –
Cn1cc(-c2ccc3[nH]nc(-c4ccnc(N5CCN(S(C)(=O)=O)CC5)c4)c3c2)cn1 [Example 381] | 1.9 nM | 24 nM | – | – | – | – | – | – | – | – | – | – | inhibition at 0.1 µM (kinases (Table B) [3]; test conc 0.100 μM): 19%; inhibition at 0.1 µM (kinases (Table B) [4]; test conc 0.100 μM): 11%; inhibition at 0.1 µM (kinases (Table B) [5]; test conc 0.100 μM): 11%; inhibition at 0.1 µM (kinases (Table B) [6]; test conc 0.100 μM): 25%; inhibition at 0.1 µM (kinases (Table B) [7]; test conc 0.100 μM): 78%; inhibition at 0.1 µM (kinases (Table B) [8]; test conc 0.100 μM): 13%; percent inhibition CDK1/cyclin B (kinases (Table B) [9]; test conc 0.100 μM): 26%; percent inhibition CLK2 (kinases (Table B) [9]; test conc 0.100 μM): 91%; percent inhibition IRAK1 (kinases (Table B) [9]; test conc 0.100 μM): 20%; percent inhibition JAK3 (kinases (Table B) [9]; test conc 0.100 μM): 4%
CC(C)Oc1ccc2[nH]nc(-c3ccnc(N4CCOCC4)c3)c2c1 [Example 400] | 1.9 nM | 14 nM | 16% | 51% | 41% | 72% | 9% | 9% | 29% | 47% | 11% | 49% | –
